PMC10269561, “Absence of Clinically Meaningful Drug-Drug Interactions with Rezafungin: Outcome of Investigations” (Microbiology Spectrum, 2023)
Read-outs that look alike come from different tables or passages of the source.

Columns and labels:
[1] = Study 2: phase 1 open-label crossover DDI study, plasma PK of oral immunosuppressant/oncology drugs alone vs with i.v. rezafungin; conditions: for Magnitude of decrease in Cmax with rezafungin vs drug alone / AUC0–t, geometric mean ratio (drug + rezafungin / drug alone) / AUC0–∞, geometric mean ratio (drug + rezafungin / drug alone) / Cmax, geometric mean ratio (drug + rezafungin / drug alone): mycophenolic acid analyte for mycophenolate mofetil; for AUC0–t, geometric mean ratio (drug + rezafungin / drug alone) / AUC0–∞, geometric mean ratio (drug + rezafungin / drug alone) / Cmax, geometric mean ratio (drug + rezafungin / drug alone): rezafungin 200 mg i.v., geometric LSM ratio x 100, ANOVA
Experimental: (§1) Both were phase 1, single-center, open-label, crossover inpatient studies that were conducted in the United States in healthy adults (study 1, aged 26 to 55 years; study 2, aged 21 to 59 years). The studies were compliant with the International Council for Harmonisation of Technical Requirements for Pharmaceuticals for Human Use E6 guideline for good clinical practice ([54]) and the Declaration of Helsinki. The study protocols were approved by the institutional review board associated with the study site, and all subjects provided written informed consent.
(§2) After screening, subjects were admitted to the CRU on day −17 (prior to the first rezafungin dose) and were discharged on day 22. Rezafungin was dosed via i.v. infusion over 1 h at 400 mg on day 1 and 200 mg on day 8 and day 15. The oral drugs to be tested for interactions were each administered twice on a schedule designed to allow washout between doses: once alone and once while receiving rezafungin (Fig. 4B). The total duration of treatment was approximately 84 days, which included 45 days of screening and 39 days of treatment in the CRU.
(§3) In study 1, predose PK blood samples were collected on each dosing day ≤60 min prior to the administration of the substrate drugs with or without rezafungin. Multiple blood samples were collected relative to each dose, with collection times ranging from 15 min to 168 h postdose, depending on the PK profile of each probe substrate drug (Table S5). For study 2, multiple blood samples were collected, and the timing of collection varied according to the PK profile of each coadministered drug from predose to 96 h postdose (Table S6). PK blood samples were collected for rezafungin at sample times ranging from predose to 168 h postdose.
(§4) For both studies, validated liquid chromatography-tandem mass spectrometry (LC-MS/MS) methods were used for PK assessments to analyze the concentrations of rezafungin and coadministered drugs. All plasma concentrations and actual blood sampling times were subjected to noncompartmental PK analysis. PK parameter calculations were performed using noncompartmental analysis (NCA) (Phoenix WinNonlin version 8.0 or higher). The PK parameters analyzed included Cmax; the time to reach the maximum observed plasma concentration (Tmax); AUC0–t (using the log-linear trapezoidal rule, where t was the last time point with a measurable concentration); AUC0–∞ (calculated as AUC0–t + Clast/λz); the AUC from 0 to 168 h (AUC0–168); the percentage of AUC0–∞ extrapolated (AUC%Extrap); the terminal elimination rate constant, determined by linear regression of the terminal linear segment of the log concentration-versus-time curve (λz); and the elimination half-life (t1/2), calculated as ln(2)/λz.
(§5) The primary analysis of the drug interaction effect on substrate drugs following rezafungin administration was assessed by the ratio of the geometric least-squares (LS) mean of each substrate drug administered with rezafungin to that without rezafungin. […] PK parameters were statistically analyzed using an analysis of variance (ANOVA) model. […] However, noncompliance with these no-effect boundaries was not considered evidence of a significant DDI. Statistical analyses were performed using SAS (version 9.4) and the mixed procedure. Adverse events were descriptively summarized.

[2] = for AUC0–t, geometric LSM value, + rezafungin / AUC0–∞, geometric LSM value, + rezafungin / Cmax, geometric LSM value, + rezafungin / AUC0–t, geometric LSM value, alone / AUC0–∞, geometric LSM value, alone / Cmax, geometric LSM value, alone: Study 1, healthy subjects, plasma, LC-MS/MS, NCA; for AUC0–t, geometric LSM value, alone / AUC0–∞, geometric LSM value, alone / Cmax, geometric LSM value, alone: oral tacrolimus 5 mg or rosuvastatin 5 mg without rezafungin; for AUC0–t, geometric mean ratio (drug + rezafungin / drug alone) / AUC0–∞, geometric mean ratio (drug + rezafungin / drug alone) / Cmax, geometric mean ratio (drug + rezafungin / drug alone): geometric LSM ratio x 100, ANOVA
Experimental: as §1
After screening, subjects were admitted to the clinical research unit (CRU) prior to the first dose of rezafungin (from day −22) and were discharged from the CRU on day 22. Nine oral substrate drugs were administered as part of a cocktail containing two or more drugs once before and once after receiving rezafungin on a schedule designed to allow the washout of the drugs in the cocktail between doses and limit interactions with other drugs (Fig. 4A). […] A loading dose of rezafungin for injection (600 mg) was administered over 1 h on day 1, followed by two once-weekly 400-mg doses over 1 h on days 10 and 15. Due to a short delay in the availability of the investigation study drug, the second once-weekly dose of rezafungin and the second set of oral substrate drugs were administered on day 10 instead of day 8, although the time between doses remained sufficient for all originally planned PK samplings through 96 h postdose and for the adequate washout of the substrate drugs. The total duration of treatment was up to 89 days, including 45 days of screening and 44 days of treatment in the CRU.
as §3, §4, §5

[3] = Study 2 safety and tolerability (TEAEs); conditions: Study 2; one subject each
Experimental: as §2
In both studies, the safety population included all subjects who received any amount of the study drug. In study 1, the rezafungin safety population included all subjects who received any amount of rezafungin. Safety assessments included vital signs (temperature, heart rate, blood pressure, and respiratory rate), safety laboratory evaluations (hematology assessment, serum chemistry panel, and urinalysis), physical examinations (complete and symptom directed), and EKGs.
Microbiology Spectrum Supplementary materials
Abbreviations: TEAE = treatment-emergent adverse event.
N = number of subjects in the safety population; n = number of subjects in a sample.
Notes: Each TEAE was counted only once for each subject within each System Organ Class and Preferred Term.

[4] = clinical study, U.S. prescribing information; cited from earlier work
[5] = Study 2, from geometric mean ratio
[6] = Study 2, healthy subjects, oral cyclosporine 200 mg, ibrutinib 280 mg or mycophenolate mofetil 500 mg (analyte mycophenolic acid) without rezafungin, plasma, LC-MS/MS, NCA
[7] = Study 2, healthy subjects, oral ibrutinib 280 mg (day 8) or mycophenolate mofetil 500 mg (day 15, cohort 1; analyte mycophenolic acid) with i.v. rezafungin 200 mg, plasma, LC-MS/MS, NCA
[8] = oral rosuvastatin 5 mg with i.v. rezafungin 400 mg (day 10)
[9] = Study 1, AUC0–t and AUC0–∞, from geometric mean ratio
[10] = Study 1, from geometric mean ratio
[11] = Study 1, rezafungin 400 mg i.v. (day 10 or 15)
[12] = oral tacrolimus 5 mg with i.v. rezafungin 600 mg (day 1)
[13] = Study 1, rezafungin 600 mg i.v.
[14] = Study 2, healthy subjects (cohort 2), oral venetoclax 50 mg with i.v. rezafungin 200 mg (day 15), plasma, LC-MS/MS, NCA
[15] = Study 2, healthy subjects (cohort 2), oral venetoclax 50 mg without rezafungin, plasma, LC-MS/MS, NCA

Compound: C=CC(=O)N1CCC[C@@H](n2nc(-c3ccc(Oc4ccccc4)cc3)c3c(N)ncnc32)C1 [Ibrutinib]
- Magnitude of decrease in Cmax with rezafungin vs drug alone [1, 5]: ~17%

Compound: COc1c(C)c2c(c(O)c1C/C=C(\C)CCC(=O)OCCN1CCOCC1)C(=O)OC2 [Mycophenolate mofetil]
- AUC0–t, geometric LSM value, alone [1, 6]: 25,299.70 ng · h/mL
- AUC0–∞, geometric LSM value, alone [1, 6]: 27,954.20 ng · h/mL
- Cmax, geometric LSM value, alone [1, 6]: 9,541.20 ng/mL
- AUC0–t, geometric LSM value, + rezafungin [1, 7]: 25,054.90 ng · h/mL
- AUC0–∞, geometric LSM value, + rezafungin [1, 7]: 28,257.00 ng · h/mL
- Cmax, geometric LSM value, + rezafungin [1, 7]: 7,740.58 ng/mL
- Observation, AUC (change with rezafungin relative to drug alone) ([1]; Study 2, class symbol, AUC0–t and AUC0–∞ unless otherwise noted): ↔ (no change (the ratio of the PK parameter value varied by up to ~10%, and the 90% CI was within 80 to 125%))
- AUC0–t, geometric mean ratio (drug + rezafungin / drug alone) ([1]; Study 2): 99.03%
- AUC0–∞, geometric mean ratio (drug + rezafungin / drug alone) ([1]; Study 2): 101.08%
- Cmax, geometric mean ratio (drug + rezafungin / drug alone) ([1]; Study 2): 81.13%

Compound: COc1c(C)c2c(c(O)c1C/C=C(\C)CCC(=O)O)C(=O)OC2 [Mycophenolic acid]
- Magnitude of decrease in Cmax with rezafungin vs drug alone [1, 5]: 19%

Compound: CC(C)c1nc(N(C)S(C)(=O)=O)nc(-c2ccc(F)cc2)c1/C=C/[C@@H](O)C[C@@H](O)CC(=O)O [Rosuvastatin]
- AUC0–t, geometric LSM value, + rezafungin [2, 8]: 31,027.38 pg · h/mL
- AUC0–∞, geometric LSM value, + rezafungin [2, 8]: 32,386.11 pg · h/mL
- Cmax, geometric LSM value, + rezafungin [2, 8]: 3,683.66 pg/mL
- AUC0–t, geometric LSM value, alone [2]: 26,949.43 pg · h/mL
- AUC0–∞, geometric LSM value, alone [2]: 28,521.34 pg · h/mL
- Cmax, geometric LSM value, alone [2]: 3,294.35 pg/mL
- Magnitude of increase in AUC with rezafungin vs drug alone [2, 9]: ~15%
- Magnitude of increase in AUC0–∞ with rezafungin vs drug alone [2, 10]: approximately 14%
- Magnitude of increase in Cmax with rezafungin vs drug alone [2, 10]: ~12%
- AUC0–t, geometric mean ratio (drug + rezafungin / drug alone) [2, 11]: 115.13%
- AUC0–∞, geometric mean ratio (drug + rezafungin / drug alone) [2, 11]: 113.55%
- Cmax, geometric mean ratio (drug + rezafungin / drug alone) [2, 11]: 111.82%

Compound: C=CC[C@@H]1/C=C(\C)C[C@H](C)C[C@H](OC)[C@H]2O[C@@](O)(C(=O)C(=O)N3CCCC[C@H]3C(=O)O[C@H](/C(C)=C/[C@@H]3CC[C@@H](O)[C@H](OC)C3)[C@H](C)[C@@H](O)CC1=O)[C@H](C)C[C@@H]2OC [Tacrolimus]
- AUC0–t, geometric LSM value, alone [2]: 309,698.20 pg · h/mL
- AUC0–∞, geometric LSM value, alone [2]: 328,990.49 pg · h/mL
- Cmax, geometric LSM value, alone [2]: 30,489.62 pg/mL
- AUC0–t, geometric LSM value, + rezafungin [2, 12]: 266,002.13 pg · h/mL
- AUC0–∞, geometric LSM value, + rezafungin [2, 12]: 283,328.47 pg · h/mL
- Cmax, geometric LSM value, + rezafungin [2, 12]: 28,909.40 pg/mL
- Magnitude of decrease in AUC with rezafungin vs drug alone [2, 9]: ~14%
- Observation, Cmax (change with rezafungin relative to drug alone) ([2]; Study 1, class symbol): ↔ (no change (the ratio of the PK parameter value varied by up to ~10%, and the 90% CI was within 80 to 125%))
- AUC0–t, geometric mean ratio (drug + rezafungin / drug alone) [2, 13]: 85.89%
- AUC0–∞, geometric mean ratio (drug + rezafungin / drug alone) [2, 13]: 86.12%
- Cmax, geometric mean ratio (drug + rezafungin / drug alone) [2, 13]: 94.82%

Compound: CC1(C)CCC(CN2CCN(c3ccc(C(=O)NS(=O)(=O)c4ccc(NCC5CCOCC5)c([N+](=O)[O-])c4)c(Oc4cnc5[nH]ccc5c4)c3)CC2)=C(c2ccc(Cl)cc2)C1 [Venetoclax]
- severe TEAE deemed by the investigator to be related to the drug [3]: abdominal pain
- AUC0–t, geometric LSM value, + rezafungin [1, 14]: 2,693.83 pg · h/mL
- AUC0–∞, geometric LSM value, + rezafungin [1, 14]: 2,781.57 pg · h/mL
- AUC0–t, geometric LSM value, alone [1, 15]: 3,004.70 pg · h/mL
- AUC0–∞, geometric LSM value, alone [1, 15]: 3,082.58 pg · h/mL
- Magnitude of decrease in AUC with rezafungin vs drug alone ([1]; Study 2, AUC0–t and AUC0–∞, from geometric mean ratio): ~10%
- Observation, Cmax (change with rezafungin relative to drug alone) ([1]; Study 2, class symbol): ↔ (no change (the ratio of the PK parameter value varied by up to ~10%, and the 90% CI was within 80 to 125%))
- AUC0–t, geometric mean ratio (drug + rezafungin / drug alone) ([1]; Study 2): 89.65%
- AUC0–∞, geometric mean ratio (drug + rezafungin / drug alone) ([1]; Study 2): 90.24%
- Cmax, geometric mean ratio (drug + rezafungin / drug alone) ([1]; Study 2): 94.84%

Compound: Caspofungin
- increase in AUC of caspofungin by cyclosporine [4]: approximately 35%
- reduction of trough concentrations of caspofungin by rifampicin [4]: 30%
